Laboratory results taken from patent US7192714B2, “LDL receptor signaling assays” (Board of Regents, The University of Texas System, priority 2001, dated 2007).

What was measured:
[1] = test system: LRP-Gal4/VP16; assay: LRP-Gal4/VP16 luciferase reporter gene assay in transfected 293 cells; format: cell-based, human
Method: (§1) Cell Culture and transfection of 293 cells: The human embryonic kidney cell line HEK 293 (CRL-1573, ATCC) was maintained in monolayer culture at 37° C. under a 8% CO2 atmosphere. On day 0 cells were set up at a density of 5×105 per 60 mm dish in Dulbecco's Modified Eagle's Medium (low glucose) containing 100 U/ml penicillin, 100 ug/ml streptomycin sulfate and 10% (v/v) FCS. On day one cells were transfected by calcium phosphate precipitation (MBS Kit™, Stratagene, La Jolla, Calif., used according to manufacturers' instructions) with 9 ug of the pG5 E1B-Luc plasmid, 0.5 ug of pCMV-b-Gal for internal control of transfection efficiency, the respective receptor construct and expression vectors for different adapter proteins or other components as indicated in the text. On day two treatment with TPA or other reagents was started as described above and cells were harvested 24 h to 48 h later.
Reporter gene assays: 293 cells were harvested for reporter gene assays 48 h after transfection. Their culture medium was removed and the cells were washed once with PBS. After addition of 400 ul “Reporter Lysis Buffer” (Promega, Madison, Wis.) per 60mm dish cells were processed according to manufacturers' instructions. Luciferase gene expression was analyzed using the “Luciferase Assay System” (Promega, Madison, Wis.). A 10 s integral measurement of light emission from each reaction mixture was performed in a tube luminometer (Octopump II, MOM Instruments).
β-Gal assays for internal control of […] were carried out with an aliquot of the cell lysates prepared for the luciferase assay using the ‘Chemiluminescent b-Gal Detection Kit” (Clontech, Palo Alto, Calif.). Normalization of luciferase activity to b-Gal activity was done by dividing RLU values obtained with the first assay by those from the latter reaction. All transfections for reporter gene assays were repeated in at least two independent experiments.
Experimental Strategy. The Gal4/VP16 fusion protein, which consists of the DNA binding domain of the yeast Gal4 transcription factor and of the transactivating domain of the Herpes simplex virus protein VP16, is able to drive transcription from a luciferase reporter plasmid that contains five Gal4 binding elements in front of the adenoviral E1B minimal promoter and the firefly luciferase gene. […]
Treatment of 293 Cells with the Proteasome Inhibitor Lactacystin Stabilizes the Intracellular LRP-Cleavage Product. […] Subsequently cell lysates were prepared and examined for luciferase activity. β-Gal activity was measured to correct for transfection efficiency. […]

[2] = test system: LRP; assay: Endogenous LRP levels by Western blotting in MEF-1 cells; format: cell-based, mouse
Method: (§2) SDS-Page and immunoblot analysis: SDS-Page and immunoblotting were performed according to standard procedures. Briefly, equal amounts of protein as determined with the Coomassie Plus Protein Reagent (Pierce, Rockford, Ill.) were loaded on 4–12% SDS PA gels. After electrophoresis and protein transfer on a PVDF membrane immunoblot, analysis was carried out with rabbit polyclonal antibodies against a C-terminal fragment of LRP. Bound antibodies were visualized with peroxidase-conjugated anti-rabbit IgG by using the SuperSignal CL-HRP Substrate (Pierce, Rockford, Ill.) according to the manufacturer's instructions.
(§3) Then cell lysates were prepared and analyzed by Western Blotting. The antibody used for immunostaining is directed against LRP's C-terminus.
Decrease of LRP Levels after TPA Treatment is Time-Dependent. […] Then cell lysates were prepared and used for SDS-PAGE and Western Blotting. LRP was stained with an antibody directed against its cytoplasmic tail.

[3] = test system: pMstGV-LDL-R construct; assay: LDL-R-Gal4/VP16 (pMstGV-LDL-R) luciferase reporter gene assay in transfected 293 cells; format: cell-based, human; settings: 100 nM TPA for 24 h
Method: as §1
(§4) Reporter gene assays: 293 cells were harvested for reporter gene assays 48 h after transfection. Their culture medium was removed and the cells were washed once with PBS. After addition of 400 ul “Reporter Lysis Buffer” (Promega, Madison, Wis.) per 60mm dish cells were processed according to manufacturers' instructions. Luciferase gene expression was analyzed using the “Luciferase Assay System” (Promega, Madison, Wis.). […]

[4] = test system: pMstGV-APP construct; assay: APP-Gal4/VP16 (pMstGV-APP) luciferase reporter gene assay in transfected 293 cells; format: cell-based, human; settings: 100 nM TPA for 24 h
Method: as §1, §4

[5] = test system: LRP; assay: Endogenous LRP levels by Western blotting in untransfected 293 cells; format: cell-based, human
Method: as §2, §3
TPA Treatment Leads To Decreased LRP Levels in 293 Cells. […] Then cell lysates were prepared and analyzed by Western Blotting. The antibody used for immunostaining is directed against LRP's C-terminus.

SMILES | luciferase activity, elevation under stimulated versus unstimulated conditions ([1]; 100 nM TPA for 24 h, pcDNA3.1-LRP-Gal4/VP16) | corrected luciferase activity (intracellular/intramembraneous LRP cleavage) versus unstimulated cells ([1]; 100 nM TPA, time periods of 12, 16, 20 and 24, pcDNA3.1-LRP-Gal4/VP16) | effect on endogenous LRP levels ([2]; 100 nM TPA for 24 h or time indicated) | decrease of LRP levels, time course ([2]; TPA for 0.5, 1.5, 5, 5, 6 and 24 h) | luciferase activity, stimulated versus unstimulated [3] | luciferase activity, stimulated versus unstimulated [4] | effect on endogenous LRP levels ([5]; 100 nM TPA for 24 h or time indicated, untransfected 293 cells) | decrease of cellular LRP levels ([5]; 100 nM TPA, various time periods up to 48 h, Western blot, antibody against LRP C-terminus, text names 293 and MEF-1 cells, heading 293) [%] | luciferase signal enhancement (stabilization of intracellular LRP-cleavage product) ([1]; 10 uM lactacystin for 24 h) | luciferase signal enhancement (stabilization of intracellular LRP-cleavage product) ([1]; 50 uM lactacystin for 24 h)
CCCCCCCCCCCCCC(=O)O[C@@H]1[C@@H](C)[C@@]2(O)[C@@H](C=C(CO)C[C@]3(O)C(=O)C(C)=C[C@@H]23)[C@@H]2C(C)(C)[C@]12OC(C)=O [TPA, Phorbol 12-myristate 13-acetate] | up to 10 fold | linear increase | Lowers Endogenous LRP Levels | Time-Dependent | negligible activity under stimulated and unstimulated conditions | equivalent elevated activity under both stimulated and unstimulated conditions | Lowers Endogenous LRP Levels | ≤ 90 | – | –
CC(=O)N[C@@H](CSC(=O)[C@]1([C@@H](O)C(C)C)NC(=O)[C@H](C)[C@@H]1O)C(=O)O [lactacystin, Lactacystin] | – | – | – | – | – | – | – | – | about 25 fold | about 25 fold
